From US4092426A, “Novel aminobenzoic acid derivatives, process for preparing the same and pharmaceutical composition containing the same” (Chugai Seiyaku Kabushiki Kaisha, priority 1975, dated 1978)
Where a name gives a salt, the structure may show the parent alone.

Key:
[1] = test system: triglyceride in liver; assay: Action for decreasing triglyceride in liver (ethanol-induced); assay type: in vivo, Sprague Dawley strain female rats; conditions: rat, oral 100 mg/kg, 30 min before ethanol 6 g/kg; 24 h; 100 mg/kg
Method: Sprague Dawley strain female rats each weighing 170 - 200 g which had been fasted for 15 hours were divided into groups of 4 rats each. The rats were orally administered a different test compound in a dose of 100 mg/kg, and 30 minutes after the administration, orally administered ethanol in a dose of 6 g/kg. Twenty-four hours after the administration of ethanol, the liver of each rat was taken out and neutral lipid level in the liver was measured in a conventional manner to calculate the ratio of preventing an increase in triglyceride content in the liver. For a control group, ethanol and, for the other control group, a glucose aqueous solution equivalent in calorific value to the same amount of ethanol were used and the same manner as those of test groups, and for the positive control group, commercially available 2-mercaptopropionylglycine was used instead of the test compound.
*The % prevention was calculated by the following

[2] = test system: autoimmune glomerulonephritis; assay: Activity for Treating a Model of Autoimmune Disease (glomerulonephritis); assay type: in vivo, New Zealand Black/White F1 female mice
Method: Pharmacological activity of the test compound, disodium salt of N-2'-carboxyphenyl-4-chloroanthranilic acid, was studied by the use of glomerulonephritis of New Zealand Black/White F1 female mice as a model of autoimmune disease. The test animals were divided into groups of 8 members each and orally administered with the test compound in a dose of 5 mg/kg or 50 mg/kg once a day from 8 week old. Development of the disease was evaluated by measuring the level of protein in urine with Combistix test paper (Ames Co., Inc.). It was confirmed that the evaluation by the test paper closely corresponds to the results of a quantitative analysis by a sulfosalicyclic acid method. Changes in average level of protein in urine each of the groups during a period of from 20 weeks old to 35 weeks old of the mice are shown in FIG. 2. […] Further, 3 mice among 8 mice of the control group were died from glomerulonephritis during the period of from 35 to 40 weeks from their birth, while there was no death in the groups to which the test compound had been administered.

[3] = test system: Sarcoma-180; assay: Antitumor Activity on Transplanted Tumor Cells (Sarcoma-180); assay type: in vivo, ddY strain male mice; conditions: 10 mg/kg oral once a day for 11 days; tumor weight 14 days after transplantation
Description: For test animals, ddY strain male mice weighing 20 - 25 g were used dividing into groups of 9 or 10 members each. Each of the mice was subjected to transplantation of 10^6 tumor cells (Sarcoma-180) at a portion of the root of a hind paw by subcutaneous injection to induce solid tumor. The test compound, disodium salt of N-2'-carboxyphenyl-4-chloroanthranilic acid, was orally administered once a day for 11 days from the day that transplantation was made. Fourteen days after the transplantation, the grown tumor tissue was taken out from each mouse and its wet weight was measured to evaluate antitumor activity of the test compound. […] For the reasons stated above, it is assumed that the activity of the test compound is based on host-mediated antitumor activity.

[4] = test system: antibody in blood; assay: Titer of antibody in blood of cortisone-treated mice (hemolysing method); assay type: in vivo, IV CS strain male mice
Method: As test animals, IV CS strain male mice (5 week old) were used by dividing them into groups of 5 members each. Each mouse was intraperitoneally administered with cortisone in a dose of 60 mg/kg once a day for 5 days. Three days after the first administration, the sensitization with an antigen, sheep red blood cell (SRBC), was made by injecting the antigen into the mouse through the tail vein. Each mouse was orally administered with the test compound, disodium salt of N-2'-carboxyphenyl-4-chloroanthranilic acid, a day after the sensitization. Five days after the sensitization, the number of plaque forming cells (PFC) in the spleen was measured in a usual manner.
* Titer of antibody in blood is indicated by a dilution degree of 50%

[5] = test system: neutrocyte; assay: Activity for Improving Bacteriocidal Ability in Neutrocyte (NBT test); assay type: in vivo, JW/CSK strain white male rabbits; conditions: rabbit, oral 100 mg/kg
Method: As test animals, JW/CSK strain white male rabbits weighing 3.0 - 3.9 kg were used, dividing them into groups of 5 members each. Each rabbit was orally administered with the test compound, disodium salt of N-2'-carboxyphenyl-4-chloroanthranilic acid in a dose of 100 mg/kg, and 24 hours after the administration, neutrocyte in the blood of the peripheral vessels were reacted with nitrobluetetrazorium (NBT) and then the proportion of cells positive to formazan was measured by a microscope. As the control, the value obtained from the same animal just 3 days before the administration of the test compound was referred to.

With `O=C(O)c1ccccc1Nc1cc(Cl)ccc1C(=O)O` [disodium salt of N-2'-carboxyphenyl-4-chloroanthranilic acid] the “% Prevention (of increase in triglyceride content in the liver)” value [1] was 63.6%, the “suppression of autoimmune glomerulonephritis” value ([2]; 5 or 50 mg/kg oral once a day) was “significantly shows pharmacological activities to suppress autoimmune glomerulonephritis” and the “level of protein in urine” value ([2]; 5 or 50 mg/kg oral once a day, 20 to 35 weeks old, control rose after around 27 weeks) was “maintained a relatively steady level”. For the same compound, the death from glomerulonephritis ([2]; 5 or 50 mg/kg oral, 35 to 40 weeks from birth, control 3 among 8 died) was “no death”, the “suppression of tumor growth (Sarcoma-180)” value [3] was “significant activity for suppression of tumor growth” and the “Titer of Antibody (dilution degree of 50% hemolysis)” value ([4]; Cortisone + Test Compound (10 mg/kg)) was 10^10. For the same compound, the “Titer of Antibody (dilution degree of 50% hemolysis)” value ([4]; Cortisone + Test Compound (50 mg/kg)) was 10^6, the “proportion of neutrocyte cells positive to formazan” value [5] was “significantly increased” and the “NBT Value” ([5]; 24 h after, before treatment 11.4 ± 1.8, P<0.05, Average ± Standard Deviation) was 33.3 ± 7.8%.
